In patent US9255101B2 (BIOPROJECT, priority 2012, dated 2016):
Structures can show the parent of a compound that is named as a salt.

Target: human H4 receptor (Homo sapiens, UniProt Q9H3N8)
Assay: biochemical
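Note: radioligand displacement of a [3H]-labelled ligand from membranes of CHO cells stably expressing human H4 receptor, bound radioactivity counted on filters by liquid scintillation.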

Chain of human H4 receptor (Q9H3N8 whole entry): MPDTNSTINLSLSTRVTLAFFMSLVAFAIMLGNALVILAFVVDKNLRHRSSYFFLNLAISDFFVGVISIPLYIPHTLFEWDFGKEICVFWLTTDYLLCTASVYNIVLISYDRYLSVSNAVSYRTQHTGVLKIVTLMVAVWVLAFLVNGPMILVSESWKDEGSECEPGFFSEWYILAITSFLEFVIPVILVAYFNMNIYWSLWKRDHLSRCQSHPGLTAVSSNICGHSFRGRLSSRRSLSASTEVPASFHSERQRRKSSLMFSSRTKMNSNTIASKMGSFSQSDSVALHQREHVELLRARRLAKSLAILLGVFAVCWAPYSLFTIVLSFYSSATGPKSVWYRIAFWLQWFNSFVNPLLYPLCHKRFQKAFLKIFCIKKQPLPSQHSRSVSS

Row | Structure (SMILES) | Ki
1 | CN1CCC(OC2c3ccccc3CCn3cc(-c4ccc(CN5CCCC5=O)cc4)nc32)CC1 (stereo not drawn) [Example 184, 1-{4-[4-(1-methylpiperidin-4-yloxy)-9,10-dihydro-4H-3,10a-diaza-benzo[f]azulen-2-yl]benzyl}-pyrrolidin-2-one] | < 1000 nM
2 | CC(C)Cc1ccc(-c2cn3c(n2)C(OC2CCN(C)CC2)c2ccccc2CC3)cc1 (stereo not drawn) [Example 28, 2-(4-isobutylphenyl)-4-(1-methylpiperidin-4-yloxy)-9,10-dihydro-4H-3,10a-diaza-benzo[f]azulene] | < 30 nM
3 | CN(C)Cc1ccc(-c2cn3c(n2)C(OC2CCN(C)CC2)c2ccccc2CC3)cc1 (stereo not drawn) [Example 113, dimethyl-{4-[4-(1-methylpiperidin-4-yloxy)-9,10-dihydro-4H-3,10a-diaza-benzo[f]azulen-2-yl]-benzyl}-amine] | < 300 nM
4 | Cc1c(-c2ccc(C(=O)N3CCC(=O)CC3)cc2)nc2n1CCc1ccccc1C2OC1CCN(C)CC1 (stereo not drawn) [Example 218, 1-{4-[1-methyl-4-(1-methylpiperidin-4-yloxy)-9,10-dihydro-4H-3,10a-diaza-benzo[f]azulen-2-yl]-benzoyl}-piperidin-4-one] | < 300 nM
5 | COCCC(=O)NCc1ccc(-c2cn3c(n2)C(OC2CCN(C)CC2)c2ccccc2CC3)cc1 (stereo not drawn) [Example 138, 3-methoxy-N-{4-[4-(1-methylpiperidin-4-yloxy)-9,10-dihydro-4H-3,10a-diaza-benzo[f]azulen-2-yl]-benzyl}-propionamide] | < 1000 nM
6 | CN1CCC(OC2c3ccccc3CCn3cc(-c4ccc(N(C)C(=O)C(C)(C)C)cc4)nc32)CC1 (stereo not drawn) [Example 101, 2,2,N-trimethyl-N-{4-[4-(1-methylpiperidin-4-yloxy)-9,10-dihydro-4H-3,10a-diaza-benzo[f]azulen-2-yl]-phenyl}-propionamide oxalate] | < 300 nM
7 | Cc1c(-c2ccc(C3=CCCCCC3)cc2)nc2n1CCc1ccccc1C2OC1CCN(C)CC1 (stereo not drawn) [Example 171, 2-(4-cyclohept-1-enylphenyl)-1-methyl-4-(1-methylpiperidin-4-yloxy)-9,10-dihydro-4H-3,10a-diaza-benzo[f]azulene] | < 30 nM
8 | Cc1c(C(O)C(C)C)nc2n1CCc1ccccc1C2OC1CCN(C)CC1 (stereo not drawn) [Example 210, 2-methyl-1-[1-methyl-4-(1-methylpiperidin-4-yloxy)-9,10-dihydro-4H-3,10a-diaza-benzo[f]azulen-2-yl]-propan-1-ol, oxalate] | < 1000 nM
9 | C=C(C)Cc1nc2n(c1C)CCc1ccccc1C2OC1CCN(C)CC1 (stereo not drawn) [Example 260, 1-methyl-2-(2-methylallyl)-4-(1-methylpiperidin-4-yloxy)-9,10-dihydro-4H-3,10a-diaza-benzo[f]azulene] | < 300 nM
10 | Ic1nc2n(c1I)CCc1ccccc1C2OCCN1CCCCC1 (stereo not drawn) [Example 265, 1,2-diiodo-4-(2-piperidin-1-yl-ethoxy)-9,10-dihydro-4H-3,10a-diaza-benzo[f]azulene] | < 1000 nM
11 | Cc1c(CCC(C)(C)C)nc2n1CCc1ccccc1C2OC1CCN(C)CC1 (stereo not drawn) [Example 229, 2-(3,3-dimethyl-butyl)-1-methyl-4-(1-methylpiperidin-4-yloxy)-9,10-dihydro-4H-3,10a-diaza-benzo[f]azulene] | < 30 nM
12 | CN1CCC(OC2c3ccccc3CCn3cc(-c4ccc(CCN(C)C(=O)OC(C)(C)C)cc4)nc32)CC1 (stereo not drawn) [Example 197, methyl-(2-{4-[4-(1-methylpiperidin-4-yloxy)-9,10-dihydro-4H-3,10a-diaza-benzo[f]azulen-2-yl]-phenyl}-ethyl)-carbamic acid tert-butyl ester] | < 30 nM
13 | Cc1c(-c2ccc(N3CCCCC3=O)cc2)nc2n1CCc1ccccc1C2OC1CCN(C)CC1 (stereo not drawn) [Example 162, 1-{4-[1-methyl-4-(1-methylpiperidin-4-yloxy)-9,10-dihydro-4H-3,10a-diaza-benzo[f]azulen-2-yl]-phenyl}-piperidin-2-one oxalate] | < 300 nM
14 | CN1CCC(OC2c3ccccc3CCn3cc(C=Cc4cccs4)nc32)CC1 (stereo not drawn) [Example 111, 4-(1-methylpiperidin-4-yloxy)-2-(2-thiophen-2-ylvinyl)-9,10-dihydro-4H-3,10a-diaza-benzo[f]azulene] | < 30 nM
15 | Ic1nc2n(c1I)CCc1ccccc1C2OC1CN2CCC1CC2 (stereo not drawn) [Example 271, 4-(1-azabicyclo[2.2.2]oct-3-yloxy)-1,2-diiodo-9,10-dihydro-4H-3,10a-diaza-benzo[f]azulene oxalate] | < 1000 nM
16 | CN1CCC(OC2c3ccccc3CCn3c2nc(I)c3I)C1 (stereo not drawn) [Example 268, 1,2-diiodo-4-(1-methylpyrrolidin-3-yloxy)-9,10-dihydro-4H-3,10a-diaza-benzo[f]azulene] | < 300 nM
17 | CN1CCC(OC2c3ccccc3CCn3cc(-c4ncco4)nc32)CC1 (stereo not drawn) [Example 40, 4-(1-methylpiperidin-4-yloxy)-2-oxazol-2-yl-9,10-dihydro-4H-3,10a-diaza-benzo[f]azulene oxalate] | < 1000 nM
18 | CN1CCC(OC2c3ccccc3CCn3cc(-c4ccc(Cl)cc4Cl)nc32)CC1 (stereo not drawn) [Example 71, 2-(2,4-dichlorophenyl)-4-(1-methylpiperidin-4-yloxy)-9,10-dihydro-4H-3,10a-diaza-benzo[f]azulene oxalate] | < 30 nM

Row | Structure (SMILES) | Ki
19 | CN1CCC(OC2c3ccccc3CCn3cc(SCc4ccco4)nc32)CC1 (stereo not drawn) [Example 85, 2-(furan-2-ylmethylsulfanyl)-4-(1-methylpiperidin-4-yloxy)-9,10-dihydro-4H-3,10a-diaza-benzo[f]azulene oxalate] | < 300 nM
20 | C=Cc1cn2c(n1)C(OC1CCN(C)CC1)c1ccccc1CC2 (stereo not drawn) [Example 9, 4-(1-methylpiperidin-4-yloxy)-2-vinyl-9,10-dihydro-4H-3,10a-diaza-benzo[f]azulene oxalate] | < 1000 nM
21 | Cc1c(-c2ccc(C(=O)NCCO)cc2)nc2n1CCc1ccccc1C2OC1CCN(C)CC1 (stereo not drawn) [Example 217, N-(2-hydroxyethyl)-4-[1-methyl-4-(1-methylpiperidin-4-yloxy)-9,10-dihydro-4H-3,10a-diaza-benzo[f]azulen-2-yl]-benzamide] | < 300 nM
22 | CN1CCC(OC2c3ccccc3CCn3cc(-c4ccc(C(=O)NCCO)cc4)nc32)CC1 (stereo not drawn) [Example 212, N-(2-hydroxyethyl)-4-[4-(1-methylpiperidin-4-yloxy)-9,10-dihydro-4H-3,10a-diaza-benzo[f]azulen-2-yl]benzamide] | < 1000 nM
23 | CN1CCC(OC2c3ccccc3CCn3cc(-c4ccc(C(=O)NC5CCC(O)CC5)cc4)nc32)CC1 (stereo not drawn) [Example 108, N-(4-hydroxycyclohexyl)-4-[4-(1-methylpiperidin-4-yloxy)-9,10-dihydro-4H-3,10a-diaza-benzo[f]azulen-2-yl]-benzamide] | < 1000 nM
24 | CN1CCC(OC2c3ccccc3CCn3cc(Cc4ccccc4)nc32)CC1 (stereo not drawn) [Example 110, 2-benzyl-4-(1-methyl-piperidin-4-yloxy)-9,10-dihydro-4H-3,10a-diaza-benzo[f]azulene oxalate] | < 300 nM
25 | Cc1c(C#CCCO)nc2n1CCc1ccccc1C2OC1CCN(C)CC1 (stereo not drawn) [Example 227, 4-[1-methyl-4-(1-methylpiperidin-4-yloxy)-9,10-dihydro-4H-3,10a-diaza-benzo[f]azulen-2-yl]-but-3-yn-1-ol] | < 300 nM
26 | CN1CCC(OC2c3cccc(-c4ccccc4)c3CCn3cc(-c4ccccc4)nc32)CC1 (stereo not drawn) [Example 92, 4-(1-methylpiperidin-4-yloxy)-2,8-diphenyl-9,10-dihydro-4H-3,10a-diaza-benzo[f]azulene] | < 300 nM
27 | CN1CCC(OC2c3ccccc3CCn3cc(SC4CCCCC4)nc32)CC1 (stereo not drawn) [Example 98, 2-cyclohexylsulfanyl-4-(1-methylpiperidin-4-yloxy)-9,10-dihydro-4H-3,10a-diaza-benzo[f]azulene oxalate] | < 300 nM
28 | CN1CCC(OC2c3ccccc3CCn3cc(CCCOCc4ccccc4)nc32)CC1 (stereo not drawn) [Example 128, 2-(3-benzyloxypropyl)-4-(1-methylpiperidin-4-yloxy)-9,10-dihydro-4H-3,10a-diaza-benzo[f]azulene oxalate] | < 300 nM
29 | COC(=O)CSc1ccc(-c2nc3n(c2C)CCc2ccccc2C3OC2CCN(C)CC2)cc1 (stereo not drawn) [Example 165, {4-[1-methyl-4-(1-methylpiperidin-4-yloxy)-9,10-dihydro-4H-3,10a-diaza-benzo[f]azulen-2-yl]-phenylsulfanyl}-acetic acid methyl ester oxalate] | < 30 nM
30 | Cc1c(-c2ccc(NC(=O)NC(C)(C)C)cc2)nc2n1CCc1ccccc1C2OC1CCN(C)CC1 (stereo not drawn) [Example 209, 1-tertbutyl-3-{4-[1-methyl-4-(1-methylpiperidin-4-yloxy)-9,10-dihydro-4H-3,10a-diaza-benzo[f]azulen-2-yl]-phenyl}-urea] | < 30 nM
31 | CN1CCC(OC2c3ccccc3CCn3cc(-c4ccc(CSCCNC(=O)OC(C)(C)C)cc4)nc32)CC1 (stereo not drawn) [Example 199, (2-{4-[4-(1-methylpiperidin-4-yloxy)-9,10-dihydro-4H-3,10a-diaza-benzo[f]azulen-2-yl]benzylsulfanyl}-ethyl)-carbamic acid tert-butyl ester] | < 300 nM
32 | CN1CCC(OC2c3ccccc3CCn3cc(-c4ccc(S(C)(=O)=O)cc4)nc32)CC1 (stereo not drawn) [Example 17, 2-(4-methanesulfonylphenyl)-4-(1-methylpiperidin-4-yloxy)-9,10-dihydro-4H-3,10a-diaza-benzo[f]azulene] | < 300 nM
33 | Cc1c(-c2ccc(NC(=O)NC34CC5CC(CC(C5)C3)C4)cc2)nc2n1CCc1ccccc1C2OC1CCN(C)CC1 (stereo not drawn) [Example 213, 1-adamantan-1-yl-3-{4-[1-methyl-4-(1-methylpiperidin-4-yloxy)-9,10-dihydro-4H-3,10a-diaza-benzo[f]azulen-2-yl]-phenyl}-urea] | < 30 nM
34 | CN1CCC(OC2c3ccccc3CCn3cc(-c4nccs4)nc32)CC1 (stereo not drawn) [Example 66, 4-(1-methylpiperidin-4-yloxy)-2-thiazol-2-yl-9,10-dihydro-4H-3,10a-diaza-benzo[f]azulene oxalate] | < 300 nM
35 | CN(C)CCOC1c2ccccc2CCn2c1nc(I)c2I (stereo not drawn) [Example 264, [2-(1,2-diiodo-9,10-dihydro-4H-3,10a-diaza-benzo[f]azulen-4-yloxy)-ethyl]-dimethyl-amine] | < 1000 nM
36 | CN1CCC(OC2c3ccccc3CCn3cc(-c4ccc(CO)cc4)nc32)CC1 (stereo not drawn) [Example 18, {4-[4-(1-methylpiperidin-4-yloxy)-9,10-dihydro-4H-3,10a-diaza-benzo[f]azulen-2-yl]-phenyl}-methanol] | < 1000 nM
